# Assay results taken from PMC3319690 (Journal of Immunology (Baltimore, Md. : 1950), 2008).
# Legend:
# [1] = system: naive, epitope-specific precursor CD8^+ T cells; conditions: indirect titration of TCR transgenic T cells; cited from earlier work
# CD8^+ T cells [2] = conditions: mouse, in vivo
# [3] = system: naive, epitope-specific precursor CD8^+ T cells; parameters: species or system mouse; conditions: for Naive epitope-specific CD8^+ T cells per mouse: spleen and lymph nodes of individual naive H-2^b mice, average, n = 15–19, tetramer-based enrichment
# CD8^+ T cells [4] = format: in vivo, mouse
# CD8^+ T cells [5] = conditions: mouse, in vivo; remark: listed apart in the source
# CD8^+ T cells [6] = conditions: mouse, in vivo; remark: listed apart in the source
Substance,Previous estimate of GP33–41/D^b-specific precursors [1],CD8^+ T cell response in F1 hybrid mice (CD8^+ T cells [2]),Precursor frequency relative to NP396–404/D^b-specific precursors ([3]; naive H-2^b mice),Naive epitope-specific CD8^+ T cells per mouse [3],"Response to single peptide immunization relative to peptide pool immunization (CD8^+ T cells [4]; Fig. 8A vs Fig. 6, wild-type GP33–41 peptide)","CD8^+ T cell response after peptide pool immunization (CD8^+ T cells [4]; pool of 28 peptides, day 11–12, H-2^b mice)",IFN-γ response to wild-type epitopes in GPVNPV-inoculated mice (CD8^+ T cells [5]),CD8^+ T cell response in rVACV-immunized mice (CD8^+ T cells [6])
GP33–41,100–200 precursors,still elicited robust T cell responses,4 fold,449 CD8^+ T cells,~2 fold,relatively strongly recognized,significantly diminished amounts of IFN-γ,the LCMV-specific response remained focused on the major dominant epitopes
"GP276–286 (SGVENPGGYCL; UniProt P09991 276-286, looked up, fragment)",,,,,,,significantly diminished amounts of IFN-γ,
"NP205–212 (YTVKYPNL; UniProt P09992 205-212, looked up, fragment)",,,,57 CD8^+ T cells,,,,
